Source: patent US20180298344A1, “Realistic Humanized Model of Disease Matrix Environment for Evaluation of Therapeutic Reversal or Cell Fate” (Yale University, priority 2017, published 2018)

Columns and labels:
[1] = test system: human microvascular pericytes (PC) on decellularized healthy lungs; experiment: PC on decellularized control human lung scaffolds, TGF-β1 activation with or without nintedanib: histology, α-SMA IHC, tensile testing; format: cell-based
Experimental: Lung sections were decellularized as previously described (Sun et al., Am J Physiol Lung Cell Mol Physiol, 2014, 306:L463-475; Petersen et al., Science, 2010, 329:538-541). Briefly, the lung pieces were snap frozen, sliced to 2 mm thickness, and rinsed with PBS containing sodium nitroprusside (SNP). The slices were decellularized with 8 mM CHAPS (Sigma-Aldrich, St Louis, Mo., USA), 1M NaCl, and 25 mM EDTA at 37° C. overnight. The slices were treated with 90 U/mL benzonase nuclease (Sigma) for 1 hour and stored in PBS containing 10% penicillin/streptomycin and 2% Gentamicin at 4° C. until the time of culture. For solubilization, the tissue slices were rinsed with PBS, frozen, and lyophilized. The lyophilized pieces were ground to a fine powder using a tissue grinder and digested with 1 mg/mL pepsin (Sigma) in 0.1 M HCl for 72 hours (DeQuach et al., PLoS One, 2010, 5:e13039).
Samples were fixed in 4% paraformaldehyde for 1 hour, dehydrated, embedded in paraffin, and sectioned into 5μm thick slices. Sections were stained with Masson's Trichrome, picrosirius red, and α-smooth muscle actin (SMA) by the Yale Histology Core Facility.
Decellularized lung samples from control and IPF subjects, as well as polyacrylamide hydrogels of varying crosslinking density, were analyzed using an Instron 5848 with a 10N load cell. Elongation was assessed by cross-head displacement. Strips of 10 mm (length)×1 (width) mm, measured with a digital caliper were affixed to grips and pulled until failure at a strain rate of 1%/sec. For lung samples, parenchymal regions were analyzed, and the pleura was avoided. Hydration of samples with PBS was maintained before and during the mechanical conditioning. Using sample dimensions, engineering stress and strain were calculated using the following equations:
σ=stress, F=Force, A0=initial area, ε=strain, lf=final length, l0=initial length. The Young's Modulus for the tissue was determined by dividing the engineering stress σ, by the engineering strain ε at 20% strain, within the normal range of lung inflation. Mechanical properties of the polyacrylamide hydrogels were also analyzed using a modified model of the Hertz equation using a custom made apparatus (FIG. 3) (Lauridsen et al., Technology, 2014, 2:133).
For short term (7 day) differentiation studies, PC (passage 3-7) were seeded on healthy or IPF lung tissue slices, polyacrylamide hydrogels, or 25 mm glass coverslips (VWR) at 100×10^3 cells per sample and activated with control media (non-activated), or 1 ng/mL TGF-β1 (PeproTech, Rocky Hill, N.J., USA) for 7 days (18, 19). For bleomycin activation, the cells were activated with 1 μg/mL bleomycin sulfate (Cayman Chemical, Ann Arbor, Mich.) for 1 day and the media was replaced with non-activated media for the remaining 6 days (Sava et al., Microcirculation, 2015, 22:54-67; Sterling et al., J Bio Chem, 1983, 258:14438-14444). TGF-β1 and bleomycin concentrations were based on reports consistent with activation of fibroblasts (Sava et al., Microcirculation, 2015, 22:54-67; Maroni and Davis, Bio Reprod, 2012, 87:127). Treatment with CCG-1423 (Sigma) was performed at day 0 for the full 7 days, and labeled as early treatment, or at day 7 and performed for 7 days, and labeled as late treatment. […]

[2] = test system: human microvascular pericytes (PC); experiment: ELISA of MMPs in supernatant of TGF-β1-activated PC with or without nintedanib; format: cell-based; conditions: nintedanib versus TGF-β1 alone
[3] = test system: human microvascular pericytes (PC); experiment: Gelatinase zymography of active MMP2 and MMP9 from TGF-β1-activated PC with or without nintedanib; format: cell-based
[4] = test system: idiopathic pulmonary fibrosis patients; conditions: IPF patients; cited from earlier work
[5] = test system: cultured lung fibroblasts; conditions: cultured lung fibroblasts in vitro; cited from earlier work
tumor = conditions: by reducing PC coverage; cited from earlier work

Compound	matrix density and collagen I content ([1]; nintedanib, TGF-β1-activated PC on decellularized healthy lung)	reduction in the number of PC expressing α-SMA ([1]; nintedanib, TGF-β1-activated PC on decellularized healthy lung, IHC, P<0.0001) [%]	elastic modulus of the scaffold ([1]; nintedanib, P=0.44 compared with control lung, P=0.001 compared with TGF-β1 without nintedanib)	expression of MMP10 [2]	MMP13 in supernatant ([2]; P<0.001)	MMP9 in supernatant ([2]; P<0.01)	MMP8 in supernatant ([2]; P<0.05)	generation of active MMP9 ([3]; P<0.01)	generation of active MMP2 ([3]; P<0.05)	decline in forced vital capacity [4]	TGF-β1-induced myofibroblast differentiation and matrix deposition [5]	tumor growth (tumor)	ECM density and collagen I crosslinking ([1]; 28 days of TGF-β1, Masson's trichrome and Picosirius red staining)	increase in the elastic modulus of the scaffold ([1]; 28 days of TGF-β1, PC on decellularized healthy lung, P=0.001) [fold]
COC(=O)c1ccc2c(c1)NC(=O)/C2=C(\Nc1ccc(N(C)C(=O)CN2CCN(C)CC2)cc1)c1ccccc1 [nintedanib]	reduction	90.1	reversion of the elastic modulus to baseline levels	did not increase	substantial increases	substantial increases	substantial increases	enhanced	enhanced	reducing the decline in forced vital capacity	oppose	inhibit tumor growth	–	–
TGF-β1: transforming growth factor (TGF)-β1, fibrotic activator, used at 1 ng/mL	–	–	–	–	–	–	–	–	–	–	–	–	increased	8.6
